From ChEMBL document CHEMBL5724806, “Unraveling interindividual differences and functional consequences of gut microbial metabolism of immunosuppressants” (2024)

Key:
Assay type in all cases: ADME
[1] = (§1) The drug is tested on Bacteroides uniformis strain: DSM6597 for biotransformation under anaerobic condition. The drug concentrations were measured over 6 timepoints collected between 0 and 12 hours of incubation by liquid-chromatography-coupled mass spectrometry (LC–MS); set-up: dose 5 uM, timepoint 0, 1.5, 3, 6, 9, 12 hours; details: 5 µM
[2] = as §1, with “the gut metagenome community of P-04 with ENA study accession number: PRJEB31790” for “Bacteroides uniformis strain: DSM6597”, “7” for “6”; set-up: dose 5 uM, timepoint 0, 0.75, 1.5, 3, 6, 9, 12 hours; details: 5 µM
[3] = (§2) The drug is tested on Actinomyces naeslundi strain: DSM43013 for biotransformation under microaerobic condition. The drug concentrations were measured over 6 timepoints collected between 0 and 12 hours of incubation by liquid-chromatography-coupled mass spectrometry (LC–MS); set-up: dose 5 uM, timepoint 0, 1.5, 3, 6, 9, 12 hours; details: actinomyces naeslundii, 5 µM
[4] = The drug is tested on Lactobacillus fermentum strain: DSM20052 for biotransformation under anaerobic condition. The drug concentrations were measured over 6 timepoints collected between 0 and 12 hours of incubation by liquid-chromatography-coupled mass spectrometry (LC–MS); set-up: dose 5 uM, timepoint 0, 1.5, 3, 6, 9, 12 hours; details: limosilactobacillus fermentum, 5 µM
[5] = The drug is tested on Lactobacillus reuteri strain: DSM20016 for biotransformation under microaerobic condition. The drug concentrations were measured over 6 timepoints collected between 0 and 12 hours of incubation by liquid-chromatography-coupled mass spectrometry (LC–MS); set-up: dose 5 uM, timepoint 0, 1.5, 3, 6, 9, 12 hours; details: limosilactobacillus reuteri, 5 µM
[6] = The drug is tested on Enterococcus faecalis strain: ATCC29212 for biotransformation under microaerobic condition. The drug concentrations were measured over 6 timepoints collected between 0 and 12 hours of incubation by liquid-chromatography-coupled mass spectrometry (LC–MS); set-up: dose 5 uM, timepoint 0, 1.5, 3, 6, 9, 12 hours; details: 5 µM
[7] = The drug is tested on Lactobacillus ruminis strain: ATCC25644 for biotransformation under anaerobic condition. The drug concentrations were measured over 6 timepoints collected between 0 and 12 hours of incubation by liquid-chromatography-coupled mass spectrometry (LC–MS); set-up: dose 5 uM, timepoint 0, 1.5, 3, 6, 9, 12 hours; details: ligilactobacillus ruminis, 5 µM
[8] = The drug is tested on Streptococcus anginosus strain: DSM20563 for biotransformation under microaerobic condition. The drug concentrations were measured over 6 timepoints collected between 0 and 12 hours of incubation by liquid-chromatography-coupled mass spectrometry (LC–MS); set-up: dose 5 uM, timepoint 0, 1.5, 3, 6, 9, 12 hours; details: 5 µM
[9] = as §2, with “the gut metagenome community of A-03 with ENA study accession number: PRJEB31790” for “Actinomyces naeslundi strain: DSM43013”, “7” for “6”; set-up: dose 5 uM, timepoint 0, 0.75, 1.5, 3, 6, 9, 12 hours; details: 5 µM
[10] = The drug is tested on Collinsella aerofaciens strain: DSM3979 for biotransformation under anaerobic condition. The drug concentrations were measured over 6 timepoints collected between 0 and 12 hours of incubation by liquid-chromatography-coupled mass spectrometry (LC–MS); set-up: dose 5 uM, timepoint 0, 1.5, 3, 6, 9, 12 hours; details: 5 µM
[11] = The drug is tested on Lactobacillus fermentum strain: DSM20052 for biotransformation under microaerobic condition. The drug concentrations were measured over 6 timepoints collected between 0 and 12 hours of incubation by liquid-chromatography-coupled mass spectrometry (LC–MS); set-up: dose 5 uM, timepoint 0, 1.5, 3, 6, 9, 12 hours; details: limosilactobacillus fermentum, 5 µM
[12] = The drug is tested on Bacteroides caccae strain: DSM19024 for biotransformation under anaerobic condition. The drug concentrations were measured over 6 timepoints collected between 0 and 12 hours of incubation by liquid-chromatography-coupled mass spectrometry (LC–MS); set-up: dose 5 uM, timepoint 0, 1.5, 3, 6, 9, 12 hours; details: 5 µM
[13] = The drug is tested on Capnocytophaga ochracea strain: DSM7271 for biotransformation under microaerobic condition. The drug concentrations were measured over 6 timepoints collected between 0 and 12 hours of incubation by liquid-chromatography-coupled mass spectrometry (LC–MS); set-up: dose 5 uM, timepoint 0, 1.5, 3, 6, 9, 12 hours; details: 5 µM
[14] = The drug is tested on Eubacterium rectale strain: DSM17629 for biotransformation under anaerobic condition. The drug concentrations were measured over 6 timepoints collected between 0 and 12 hours of incubation by liquid-chromatography-coupled mass spectrometry (LC–MS); set-up: dose 5 uM, timepoint 0, 1.5, 3, 6, 9, 12 hours; details: agathobacter rectalis, 5 µM
[15] = as §1, with “the gut metagenome community of A-07 with ENA study accession number: PRJEB31790” for “Bacteroides uniformis strain: DSM6597”, “7” for “6”; set-up: dose 5 uM, timepoint 0, 0.75, 1.5, 3, 6, 9, 12 hours; details: 5 µM
[16] = as §1, with “the gut metagenome community of A-09 with ENA study accession number: PRJEB31790” for “Bacteroides uniformis strain: DSM6597”, “7” for “6”; set-up: dose 5 uM, timepoint 0, 0.75, 1.5, 3, 6, 9, 12 hours; details: 5 µM
[17] = as §2, with “the gut metagenome community of A-05 with ENA study accession number: PRJEB31790” for “Actinomyces naeslundi strain: DSM43013”, “7” for “6”; set-up: dose 5 uM, timepoint 0, 0.75, 1.5, 3, 6, 9, 12 hours; details: 5 µM
[18] = as §1, with “the gut metagenome community of A-08 with ENA study accession number: PRJEB31790” for “Bacteroides uniformis strain: DSM6597”, “7” for “6”; set-up: dose 5 uM, timepoint 0, 0.75, 1.5, 3, 6, 9, 12 hours; details: 5 µM
[19] = The drug is tested on Bacteroides fragilis strain: DSM2151 for biotransformation under anaerobic condition. The drug concentrations were measured over 6 timepoints collected between 0 and 12 hours of incubation by liquid-chromatography-coupled mass spectrometry (LC–MS); set-up: dose 5 uM, timepoint 0, 1.5, 3, 6, 9, 12 hours; details: 5 µM
[20] = as §2, with “the gut metagenome community of A-06 with ENA study accession number: PRJEB31790” for “Actinomyces naeslundi strain: DSM43013”, “7” for “6”; set-up: dose 5 uM, timepoint 0, 0.75, 1.5, 3, 6, 9, 12 hours; details: 5 µM
[21] = The drug is tested on Gemella haemolysans strain: DSM107751 for biotransformation under microaerobic condition. The drug concentrations were measured over 6 timepoints collected between 0 and 12 hours of incubation by liquid-chromatography-coupled mass spectrometry (LC–MS); set-up: dose 5 uM, timepoint 0, 1.5, 3, 6, 9, 12 hours; details: 5 µM
[22] = as §2, with “the gut metagenome community of P-02 with ENA study accession number: PRJEB31790” for “Actinomyces naeslundi strain: DSM43013”, “7” for “6”; set-up: dose 5 uM, timepoint 0, 0.75, 1.5, 3, 6, 9, 12 hours; details: 5 µM
[23] = The drug is tested on Blautia hansenii strain: DSM20583 for biotransformation under anaerobic condition. The drug concentrations were measured over 6 timepoints collected between 0 and 12 hours of incubation by liquid-chromatography-coupled mass spectrometry (LC–MS); set-up: dose 5 uM, timepoint 0, 1.5, 3, 6, 9, 12 hours; details: 5 µM
[24] = as §1, with “the gut metagenome community of A-01 with ENA study accession number: PRJEB31790” for “Bacteroides uniformis strain: DSM6597”, “7” for “6”; set-up: dose 5 uM, timepoint 0, 0.75, 1.5, 3, 6, 9, 12 hours; details: 5 µM
[25] = The drug is tested on Clostridium scindens strain: DSM5676 for biotransformation under anaerobic condition. The drug concentrations were measured over 6 timepoints collected between 0 and 12 hours of incubation by liquid-chromatography-coupled mass spectrometry (LC–MS); set-up: dose 5 uM, timepoint 0, 1.5, 3, 6, 9, 12 hours; details: 5 µM
[26] = as §1, with “the gut metagenome community of A-05 with ENA study accession number: PRJEB31790” for “Bacteroides uniformis strain: DSM6597”, “7” for “6”; set-up: dose 5 uM, timepoint 0, 0.75, 1.5, 3, 6, 9, 12 hours; details: 5 µM
[27] = as §2, with “the gut metagenome community of A-01 with ENA study accession number: PRJEB31790” for “Actinomyces naeslundi strain: DSM43013”, “7” for “6”; set-up: dose 5 uM, timepoint 0, 0.75, 1.5, 3, 6, 9, 12 hours; details: 5 µM
[28] = The drug is tested on Alloscardovia omnicolens strain: DSM21503 for biotransformation under microaerobic condition. The drug concentrations were measured over 6 timepoints collected between 0 and 12 hours of incubation by liquid-chromatography-coupled mass spectrometry (LC–MS); set-up: dose 5 uM, timepoint 0, 1.5, 3, 6, 9, 12 hours; details: 5 µM
[29] = The drug is tested on Streptococcus sanguinis strain: DSM20567 for biotransformation under microaerobic condition. The drug concentrations were measured over 6 timepoints collected between 0 and 12 hours of incubation by liquid-chromatography-coupled mass spectrometry (LC–MS); set-up: dose 5 uM, timepoint 0, 1.5, 3, 6, 9, 12 hours; details: 5 µM
[30] = The drug is tested on Bacteroides ovatus strain: ATCC 8483 for biotransformation under anaerobic condition. The drug concentrations were measured over 6 timepoints collected between 0 and 12 hours of incubation by liquid-chromatography-coupled mass spectrometry (LC–MS); set-up: dose 5 uM, timepoint 0, 1.5, 3, 6, 9, 12 hours; details: 5 µM

Structure (SMILES) | Bacterial Biotransformation [1] | Bacterial Biotransformation [2] | Bacterial Biotransformation [3] | Bacterial Biotransformation [4] | Bacterial Biotransformation [5] | Bacterial Biotransformation [6] | Bacterial Biotransformation [7] | Bacterial Biotransformation [8] | Bacterial Biotransformation [9] | Bacterial Biotransformation [10] | Bacterial Biotransformation [11] | Bacterial Biotransformation [12] | Bacterial Biotransformation [13] | Bacterial Biotransformation [14] | Bacterial Biotransformation [15] | Bacterial Biotransformation [16] | Bacterial Biotransformation [17] | Bacterial Biotransformation [18] | Bacterial Biotransformation [19] | Bacterial Biotransformation [20] | further results
COc1ccc([C@@H]2Sc3ccccc3N(CCN(C)C)C(=O)[C@@H]2OC(C)=O)cc1 [DILTIAZEM] | Compound metabolized | Compound NOT metabolized | Compound NOT metabolized | Compound NOT metabolized | Compound NOT metabolized | Compound NOT metabolized | Compound NOT metabolized | Compound NOT metabolized | Compound metabolized | Compound NOT metabolized | Compound NOT metabolized | Compound NOT metabolized | Compound metabolized | Compound NOT metabolized | Compound metabolized | Compound metabolized | Compound metabolized | Compound metabolized | Compound NOT metabolized | Compound metabolized | Bacterial Biotransformation [21]: Compound NOT metabolized; Bacterial Biotransformation [22]: Compound metabolized; Bacterial Biotransformation [23]: Compound NOT metabolized; Bacterial Biotransformation [24]: Compound metabolized; Bacterial Biotransformation [25]: Compound NOT metabolized; Bacterial Biotransformation [26]: Compound metabolized; Bacterial Biotransformation [27]: Compound metabolized; Bacterial Biotransformation [28]: Compound NOT metabolized; Bacterial Biotransformation [29]: Compound NOT metabolized; Bacterial Biotransformation [30]: Compound metabolized
CO[C@H]1C[C@@H]2CC[C@@H](C)[C@@](O)(O2)C(=O)C(=O)N2CCCC[C@H]2C(=O)O[C@H]([C@H](C)C[C@@H]2CC[C@@H](OCCO)[C@H](OC)C2)CC(=O)[C@H](C)/C=C(\C)[C@@H](O)[C@@H](OC)C(=O)[C@H](C)C[C@H](C)/C=C/C=C/C=C/1C [EVEROLIMUS] | Compound NOT metabolized | Compound NOT metabolized | Compound NOT metabolized | Compound NOT metabolized | Compound NOT metabolized | Compound NOT metabolized | Compound NOT metabolized | Compound NOT metabolized | Compound metabolized | Compound metabolized | Compound NOT metabolized | Compound NOT metabolized | Compound NOT metabolized | Compound NOT metabolized | Compound metabolized | Compound metabolized | Compound metabolized | Compound metabolized | Compound NOT metabolized | Compound metabolized | Bacterial Biotransformation [21]: Compound NOT metabolized; Bacterial Biotransformation [22]: Compound NOT metabolized; Bacterial Biotransformation [23]: Compound metabolized; Bacterial Biotransformation [24]: Compound metabolized; Bacterial Biotransformation [25]: Compound metabolized; Bacterial Biotransformation [26]: Compound metabolized; Bacterial Biotransformation [27]: Compound metabolized; Bacterial Biotransformation [28]: Compound NOT metabolized; Bacterial Biotransformation [29]: Compound NOT metabolized; Bacterial Biotransformation [30]: Compound NOT metabolized
NS(=O)(=O)c1cc(C(=O)O)c(NCc2ccco2)cc1Cl [FUROSEMIDE] | Compound NOT metabolized | Compound NOT metabolized | Compound NOT metabolized | Compound NOT metabolized | Compound NOT metabolized | Compound NOT metabolized | Compound NOT metabolized | Compound NOT metabolized | Compound NOT metabolized | Compound NOT metabolized | Compound NOT metabolized | Compound NOT metabolized | Compound NOT metabolized | Compound NOT metabolized | Compound NOT metabolized | Compound NOT metabolized | Compound NOT metabolized | Compound NOT metabolized | Compound NOT metabolized | Compound NOT metabolized | Bacterial Biotransformation [21]: Compound NOT metabolized; Bacterial Biotransformation [22]: Compound NOT metabolized; Bacterial Biotransformation [23]: Compound NOT metabolized; Bacterial Biotransformation [24]: Compound NOT metabolized; Bacterial Biotransformation [25]: Compound NOT metabolized; Bacterial Biotransformation [26]: Compound NOT metabolized; Bacterial Biotransformation [27]: Compound NOT metabolized; Bacterial Biotransformation [28]: Compound NOT metabolized; Bacterial Biotransformation [29]: Compound NOT metabolized; Bacterial Biotransformation [30]: Compound NOT metabolized
